Among the data in publication PMC8799717, “Pharmacological targeting PIKfyve and tubulin as an effective treatment strategy for double-hit lymphoma” (Cell Death Discovery, 2022) are remaining binding values, retold here.

Each structure is given as a SMILES string.

Holding throughout (assay): biochemical
What all share (design): KINOMEscan active-site-directed competition binding panel, 468 kinases, percent of DMSO control at 1 uM
Details in all cases: KINOMEscan binding, percent of DMSO control; read-out: Ctrl%

Assay [1] deals with EPHB3 (Homo sapiens, UniProt P54753).
Assay [2] deals with FLT3 (Homo sapiens, UniProt P36888).
The target in assay [3] is PAK4 (Homo sapiens, UniProt O96013).
Assay [4] has as its target PRKG1 (Homo sapiens, UniProt Q13976).
In assay [5] the target is MKNK1 (Homo sapiens, UniProt Q9BUB5).
The target of assay [6] is PIK3C2G (Homo sapiens, UniProt O75747).
The target of assay [7] is CDK3 (Homo sapiens, UniProt Q00526).
Assay [8] has as its target ROS1 (Homo sapiens, UniProt P08922).
For assay [9], the target named is EPHB2 (Homo sapiens, UniProt P29323).
For assay [10], the target named is LIMK2 (Homo sapiens, UniProt P53671).
For assay [11], the target named is T1, S6K1 (Homo sapiens, UniProt P23443).
T1 construct: gene RPS6KB1

Assay [12] addresses MAP3K15 (Homo sapiens, UniProt Q6ZN16).
In assay [13] the target is FGFR1 (Homo sapiens, UniProt P11362).
The target in assay [14] is T2, ABL1(F317L)-nonphosphorylated (Homo sapiens, UniProt P00519, F317L).
T2 construct: nonphosphorylated

Assay [15] concerns the target T3, PIK4CB (Homo sapiens, UniProt Q9UBF8).
T3 construct: gene PI4KB

For assay [16], the target named is SNRK (Homo sapiens, UniProt Q9NRH2).
For assay [17], the target named is T4, DMPK2 (Homo sapiens, UniProt Q6DT37).
T4 construct: gene CDC42BPG

The target in assay [18] is CLK4 (Homo sapiens, UniProt Q9HAZ1).
Assay [19] concerns the target T5, TRKB (Homo sapiens, UniProt Q16620).
T5 construct: gene NTRK2

Assay [20] concerns the target T6, MST1 (Homo sapiens, UniProt Q13043).
T6 construct: gene STK4

In assay [21] the target is T7, ASK2 (Homo sapiens, UniProt O95382).
T7 construct: gene MAP3K6

Assay [22] deals with EGFR (Homo sapiens, UniProt P00533).
In assay [23] the target is SRPK2 (Homo sapiens, UniProt P78362).
For assay [24], the target named is T8, ABL1(T315I)-nonphosphorylated (Homo sapiens, UniProt P00519, T315I).
T8 construct: nonphosphorylated

Chain of PIK3C2G (O75747 whole entry): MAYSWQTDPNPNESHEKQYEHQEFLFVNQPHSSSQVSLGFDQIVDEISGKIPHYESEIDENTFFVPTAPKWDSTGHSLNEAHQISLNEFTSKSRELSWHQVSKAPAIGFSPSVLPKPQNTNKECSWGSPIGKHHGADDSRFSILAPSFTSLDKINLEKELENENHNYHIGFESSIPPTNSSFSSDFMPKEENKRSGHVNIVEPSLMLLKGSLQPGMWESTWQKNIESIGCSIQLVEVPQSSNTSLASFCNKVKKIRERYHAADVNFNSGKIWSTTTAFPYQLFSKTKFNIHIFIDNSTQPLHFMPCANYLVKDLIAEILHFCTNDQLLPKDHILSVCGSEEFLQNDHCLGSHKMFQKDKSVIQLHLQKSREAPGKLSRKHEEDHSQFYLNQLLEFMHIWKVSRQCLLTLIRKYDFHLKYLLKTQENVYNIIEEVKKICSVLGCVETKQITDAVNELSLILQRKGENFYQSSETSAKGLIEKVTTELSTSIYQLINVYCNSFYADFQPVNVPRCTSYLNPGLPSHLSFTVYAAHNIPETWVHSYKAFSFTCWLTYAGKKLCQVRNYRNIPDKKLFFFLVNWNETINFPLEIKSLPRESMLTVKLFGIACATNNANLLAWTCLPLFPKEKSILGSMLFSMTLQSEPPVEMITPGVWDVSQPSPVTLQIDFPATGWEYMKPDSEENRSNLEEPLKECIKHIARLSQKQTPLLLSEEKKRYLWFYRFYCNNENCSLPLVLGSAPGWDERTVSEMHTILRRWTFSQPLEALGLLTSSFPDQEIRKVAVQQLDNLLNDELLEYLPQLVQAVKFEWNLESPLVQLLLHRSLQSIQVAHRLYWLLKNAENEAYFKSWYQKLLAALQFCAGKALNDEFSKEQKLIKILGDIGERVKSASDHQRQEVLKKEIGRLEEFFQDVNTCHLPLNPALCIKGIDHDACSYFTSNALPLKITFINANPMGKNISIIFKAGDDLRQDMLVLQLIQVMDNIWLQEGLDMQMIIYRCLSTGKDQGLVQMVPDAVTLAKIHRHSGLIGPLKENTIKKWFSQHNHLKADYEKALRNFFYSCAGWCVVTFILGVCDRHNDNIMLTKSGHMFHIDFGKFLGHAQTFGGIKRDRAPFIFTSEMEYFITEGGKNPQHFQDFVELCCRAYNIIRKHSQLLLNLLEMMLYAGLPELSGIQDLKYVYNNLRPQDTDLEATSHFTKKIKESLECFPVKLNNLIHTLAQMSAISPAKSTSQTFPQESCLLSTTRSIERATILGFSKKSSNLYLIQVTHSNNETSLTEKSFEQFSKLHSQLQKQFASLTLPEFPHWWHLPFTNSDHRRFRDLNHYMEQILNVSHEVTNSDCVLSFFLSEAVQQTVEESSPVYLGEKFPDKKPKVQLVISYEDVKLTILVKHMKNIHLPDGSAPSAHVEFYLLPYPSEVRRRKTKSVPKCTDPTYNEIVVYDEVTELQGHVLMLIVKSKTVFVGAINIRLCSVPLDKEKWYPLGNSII
Chain of SRPK2 (P78362 whole entry): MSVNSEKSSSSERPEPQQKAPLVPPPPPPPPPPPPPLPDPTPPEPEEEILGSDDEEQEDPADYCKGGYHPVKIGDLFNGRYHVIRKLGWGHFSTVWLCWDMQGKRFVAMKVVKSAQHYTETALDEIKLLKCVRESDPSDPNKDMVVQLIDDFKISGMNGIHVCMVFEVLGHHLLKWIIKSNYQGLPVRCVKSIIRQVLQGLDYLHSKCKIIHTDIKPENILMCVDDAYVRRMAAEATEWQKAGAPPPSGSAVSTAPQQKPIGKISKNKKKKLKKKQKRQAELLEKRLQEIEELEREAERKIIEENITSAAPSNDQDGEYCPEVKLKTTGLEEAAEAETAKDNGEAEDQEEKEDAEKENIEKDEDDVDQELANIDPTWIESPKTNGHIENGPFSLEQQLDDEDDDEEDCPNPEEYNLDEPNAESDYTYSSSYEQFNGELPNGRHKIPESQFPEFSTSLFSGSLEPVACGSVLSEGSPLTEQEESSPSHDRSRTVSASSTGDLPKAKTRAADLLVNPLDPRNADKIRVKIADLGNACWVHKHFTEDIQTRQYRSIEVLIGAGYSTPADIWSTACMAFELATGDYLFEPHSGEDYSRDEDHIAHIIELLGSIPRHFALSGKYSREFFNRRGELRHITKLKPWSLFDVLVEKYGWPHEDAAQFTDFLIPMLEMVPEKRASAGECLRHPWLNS
Chain of EPHB2 (P29323 whole entry): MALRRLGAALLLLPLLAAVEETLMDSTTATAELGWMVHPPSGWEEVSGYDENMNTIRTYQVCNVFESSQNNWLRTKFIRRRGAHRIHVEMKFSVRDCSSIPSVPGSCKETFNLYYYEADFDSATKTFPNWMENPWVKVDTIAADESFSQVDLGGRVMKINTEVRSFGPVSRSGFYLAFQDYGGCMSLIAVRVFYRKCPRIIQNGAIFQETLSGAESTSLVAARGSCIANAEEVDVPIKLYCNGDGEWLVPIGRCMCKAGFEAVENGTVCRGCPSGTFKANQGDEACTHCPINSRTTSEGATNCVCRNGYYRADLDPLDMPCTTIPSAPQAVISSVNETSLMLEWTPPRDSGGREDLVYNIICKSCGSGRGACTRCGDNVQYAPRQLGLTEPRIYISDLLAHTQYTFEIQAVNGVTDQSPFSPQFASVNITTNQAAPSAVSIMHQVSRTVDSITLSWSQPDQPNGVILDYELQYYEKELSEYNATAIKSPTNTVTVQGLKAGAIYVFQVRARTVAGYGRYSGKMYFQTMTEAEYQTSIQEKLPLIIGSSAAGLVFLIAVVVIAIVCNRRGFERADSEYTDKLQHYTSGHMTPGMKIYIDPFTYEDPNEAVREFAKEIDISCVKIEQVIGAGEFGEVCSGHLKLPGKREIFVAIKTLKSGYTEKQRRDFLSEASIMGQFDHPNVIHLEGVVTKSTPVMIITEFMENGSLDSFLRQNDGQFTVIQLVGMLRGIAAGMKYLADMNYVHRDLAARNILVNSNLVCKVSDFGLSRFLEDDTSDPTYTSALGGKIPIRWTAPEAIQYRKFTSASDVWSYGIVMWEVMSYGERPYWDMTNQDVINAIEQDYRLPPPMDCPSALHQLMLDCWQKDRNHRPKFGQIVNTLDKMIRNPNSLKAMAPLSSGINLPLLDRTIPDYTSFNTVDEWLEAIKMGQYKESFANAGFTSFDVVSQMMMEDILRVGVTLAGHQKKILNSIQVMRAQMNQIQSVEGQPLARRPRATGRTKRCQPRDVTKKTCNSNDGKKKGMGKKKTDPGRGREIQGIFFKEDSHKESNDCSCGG
T4 sequence (Q6DT37 whole entry): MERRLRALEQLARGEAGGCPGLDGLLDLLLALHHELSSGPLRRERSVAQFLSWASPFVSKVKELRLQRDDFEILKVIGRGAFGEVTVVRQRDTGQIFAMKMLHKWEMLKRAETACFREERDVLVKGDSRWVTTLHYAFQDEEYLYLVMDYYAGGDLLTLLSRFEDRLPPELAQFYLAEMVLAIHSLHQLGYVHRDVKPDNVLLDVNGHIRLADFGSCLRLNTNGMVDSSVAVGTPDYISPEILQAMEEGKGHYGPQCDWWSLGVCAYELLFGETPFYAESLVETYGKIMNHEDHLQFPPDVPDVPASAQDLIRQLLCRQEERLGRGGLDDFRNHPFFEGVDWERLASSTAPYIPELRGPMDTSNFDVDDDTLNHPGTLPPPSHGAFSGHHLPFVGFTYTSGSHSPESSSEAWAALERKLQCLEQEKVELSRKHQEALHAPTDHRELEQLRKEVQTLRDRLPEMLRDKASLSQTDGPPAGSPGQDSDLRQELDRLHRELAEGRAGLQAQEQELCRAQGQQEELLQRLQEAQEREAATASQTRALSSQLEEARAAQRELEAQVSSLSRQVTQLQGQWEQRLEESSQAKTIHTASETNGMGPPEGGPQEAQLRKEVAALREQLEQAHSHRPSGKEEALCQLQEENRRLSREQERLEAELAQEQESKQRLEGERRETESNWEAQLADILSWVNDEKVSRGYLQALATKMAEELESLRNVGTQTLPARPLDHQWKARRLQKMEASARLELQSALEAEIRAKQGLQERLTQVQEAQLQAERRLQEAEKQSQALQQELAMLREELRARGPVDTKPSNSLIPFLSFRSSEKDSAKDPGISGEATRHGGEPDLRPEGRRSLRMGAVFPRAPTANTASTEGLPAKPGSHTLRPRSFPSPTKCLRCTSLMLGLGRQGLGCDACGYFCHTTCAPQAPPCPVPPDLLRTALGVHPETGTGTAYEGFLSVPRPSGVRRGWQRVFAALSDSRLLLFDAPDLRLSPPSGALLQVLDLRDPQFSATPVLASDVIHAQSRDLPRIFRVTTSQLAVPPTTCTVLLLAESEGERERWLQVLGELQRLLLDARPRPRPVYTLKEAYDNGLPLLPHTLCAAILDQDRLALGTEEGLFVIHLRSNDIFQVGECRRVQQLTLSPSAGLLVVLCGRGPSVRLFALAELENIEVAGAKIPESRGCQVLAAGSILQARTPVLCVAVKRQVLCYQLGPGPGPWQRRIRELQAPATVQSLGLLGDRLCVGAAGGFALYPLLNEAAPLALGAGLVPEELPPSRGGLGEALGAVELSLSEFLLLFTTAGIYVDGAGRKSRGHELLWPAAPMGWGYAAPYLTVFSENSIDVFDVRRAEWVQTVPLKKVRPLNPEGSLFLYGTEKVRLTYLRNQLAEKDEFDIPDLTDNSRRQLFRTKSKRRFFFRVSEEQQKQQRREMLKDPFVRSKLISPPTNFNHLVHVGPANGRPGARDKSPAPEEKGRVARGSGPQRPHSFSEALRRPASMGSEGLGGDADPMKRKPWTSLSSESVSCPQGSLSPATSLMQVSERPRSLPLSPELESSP
Chain of CDK3 (Q00526 whole entry): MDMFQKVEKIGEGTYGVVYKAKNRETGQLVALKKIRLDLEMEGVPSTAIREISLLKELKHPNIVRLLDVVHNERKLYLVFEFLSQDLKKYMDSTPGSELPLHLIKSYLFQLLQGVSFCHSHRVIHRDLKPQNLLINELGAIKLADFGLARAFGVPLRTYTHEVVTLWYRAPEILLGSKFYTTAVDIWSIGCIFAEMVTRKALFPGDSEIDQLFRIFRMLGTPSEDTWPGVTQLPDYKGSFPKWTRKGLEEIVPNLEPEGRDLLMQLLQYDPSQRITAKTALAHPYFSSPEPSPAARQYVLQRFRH

Regarding `Cc1ccc(NC(=O)c2cccc(C(F)(F)F)c2)cc1Nc1cc(-c2cccnc2)nc2[nH]ccc12` [HZX-02-059], the remaining binding at 1 µM stood at 48% in assay [1]; 91% in assay [2]; 95% in assay [3]; 82% in assay [4]; 100% in [5]; 86% in assay [6]. In addition, the remaining binding at 1 µM in [7] worked out at 100%; in assay [8], 72%; in assay [9] it was 4.7%; in assay [10], 95%; in assay [11] it was 95%; in assay [12] it was 53%. Further, the remaining binding at 1 µM amounted to 93% in [13]; 60% in [14]; 78% in assay [15]; 71% in assay [16]; 99% in assay [17]; 94% in [18]. Besides, the remaining binding at 1 µM in assay [19] turned out to be 100%; in [20] it was 74%; in assay [21] it was 66%; in assay [22] it was 67%; in assay [23] it was 83%; in assay [24], 77%.
